The record followed here is patent US11999758B2, “Inhibitors of the YAP/TAZ-TEAD interaction and their use in the treatment of cancer” (INVENTIVA, priority 2018, dated 2024).

The target in the assay is T1, YAP-TEAD interaction (Homo sapiens, UniProt P28347).
T1 construct: expressed in transfected cells; host or cells: HEK293 GripTite 293 MSR (Invitrogen R795-07)
As to the kind of experiment: Cell-based TEAD-GAL4 transactivation assay (luciferase reporter). The following applies: HEK293 cells transfected with TEAD1-Gal4, YAP mutant (S127A, S397A) and luciferase reporter, compounds 0.1 μM to 30 μM; for Emax: HEK293, 24 h, read-out: TEAD-GAL4 Transactivation activity Max Act; for IC50: 24 h. Put shortly:
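HEK293 cells transiently transfected with Gal4-DBD–full-length human TEAD1, full-length YAP S127A/S397A (YAP/TEAD ratio 10) and a 5×GAL4-RE TK-luciferase reporter. Six hours later, compounds added semi-log from 0.1 to 30 μM (DMSO 0.5% control) for 24 h. Luciferase read; IC50 from 3-parameter fit.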
In general terms: A reporter such as luciferase makes a cellular process visible.

T1 sequence (P28347 whole entry): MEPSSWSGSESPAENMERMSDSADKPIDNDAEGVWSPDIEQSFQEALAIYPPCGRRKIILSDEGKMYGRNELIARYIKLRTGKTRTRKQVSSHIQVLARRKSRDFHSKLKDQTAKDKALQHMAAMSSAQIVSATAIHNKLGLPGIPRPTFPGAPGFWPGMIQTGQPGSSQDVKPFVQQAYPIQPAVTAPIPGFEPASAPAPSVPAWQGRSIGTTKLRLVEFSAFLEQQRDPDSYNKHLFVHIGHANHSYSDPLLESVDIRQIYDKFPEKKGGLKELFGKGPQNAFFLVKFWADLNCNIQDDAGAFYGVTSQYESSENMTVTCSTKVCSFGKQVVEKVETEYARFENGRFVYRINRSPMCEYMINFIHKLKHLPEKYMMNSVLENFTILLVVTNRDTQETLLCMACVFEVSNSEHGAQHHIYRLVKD

`COCCOc1cc(/C=N/N(CC(C)C)C2=NS(=O)(=O)c3ccccc32)ccc1B(O)O` [Ex 11, [4-[(E)-[(1,1-dioxo-1,2-benzothiazol-3-yl)-isobutyl-hydrazono]methyl]-2-(2-methoxyethoxy)phenyl]boronic acid]: the Emax came to 85%.

A word on the IC50: it is the concentration that gives 50% inhibition. A low value points to greater potency. On to `COc1cc(/C=N/N(CC(C)C)C2=NS(=O)(=O)c3ccc(OCCCO)cc32)ccc1B(O)O` [Ex 12, [4-[(E)-[[5-(3-hydroxypropoxy)-1,1-dioxo-1,2-benzothiazol-3-yl]-isobutyl-hydrazono]methyl]-2-methoxy-phenyl]boronic acid], for which the Emax is 98% and the IC50 amounted to 2970 nM.

In the case of `COc1cc(/C=N/N(CC(C)C)c2ncnc3c(OC)cccc23)ccc1B(O)O` [Ex 13, [4-[(E)-[isobutyl-(8-methoxyquinazolin-4-yl)hydrazono]methyl]-2-methoxy-phenyl] boronic acid], the Emax amounted to 95% and it took 5780 nM to reach half-maximal inhibition (IC50).

Regarding `CCOc1cc(/C=N/N(CC(C)C)C2=NS(=O)(=O)c3ccccc32)ccc1B(O)O` [Ex 14, [4-[(E)-[(1,1-dioxo-1,2-benzothiazol-3-yl)-isobutyl-hydrazono]methyl]-2-ethoxyphenyl]boronic acid], the Emax was found to be 90%.

Turning to `COc1cc(OC)c2c(c1)C(N(CC(C)C)/N=C/c1ccc(B(O)O)c(Cl)c1)=NS2(=O)=O` [Ex 15, [2-chloro-4-[(E)-[(5,7-dimethoxy-1,1-dioxo-1,2-benzothiazol-3-yl)-isobutyl-hydrazono]methyl]phenyl]boronic acid], the Emax is 95%.

Consider `CCC(C)N(/N=C/c1ccc(B(O)O)c(OC)c1)C1=NS(=O)(=O)c2ccccc21` (stereo not drawn) [Ex 16, [4-[(E)-[(1,1-dioxo-1,2-benzothiazol-3-yl)-sec-butyl-hydrazono]methyl]-2-methoxyphenyl]boronic acid], for which the Emax came to 76% and the IC50 came to 4160 nM.

As to `COc1cc(OC)c2ncnc(N(CC(C)C)/N=C/c3ccc(B(O)O)c(OC)c3)c2c1` [Ex 17, [4-[(E)-[(6,8-dimethoxyquinazolin-4-yl)-isobutyl-hydrazono]methyl]-2-methoxyphenyl]boronic acid], the Emax is 98% and half-maximal inhibition (IC50) was put at 7740 nM.

For the compound `COc1cc(/C=N/N(CC(C)C)c2ncnc3cc(F)ccc23)ccc1B(O)O` [Ex 18, [4-[(E)-[(7-fluoroquinazolin-4-yl)-isobutyl-hydrazono]methyl]-2-methoxyphenyl] boronic acid], the Emax came out at 80% and half-maximal inhibition (IC50) was put at 2180 nM.

In the case of `COc1ccc2ncnc(N(CC(C)C)/N=C/c3ccc(B(O)O)c(OC)c3)c2c1` [Ex 19, [4-[(E)-[isobutyl-(6-methoxyquinazolin-4-yl)hydrazono]methyl]-2-methoxyphenyl] boronic acid], the Emax stood at 97% and the IC50 stood at 3360 nM.

As to `CCN(/N=C/c1ccc(B(O)O)c(OC)c1)c1ncnc2c(OC)cccc12` [Ex 21, [4-[(E)-[ethyl-(8-methoxyquinazolin-4-yl)hydrazono]methyl]-2-methoxy-phenyl]boronic acid], the Emax turned out to be 90% and the midpoint of inhibition, the IC50, lay at 1770 nM.

Take `COc1cc(/C=N/N(C)c2ncnc3c(OC)cccc23)ccc1B(O)O` [Ex 22, [2-methoxy-4-[(E)-[(8-methoxyquinazolin-4-yl)-methyl-hydrazono]-methyl]phenyl]boronic acid]: the Emax came to 97% and the IC50 is 2570 nM.

For the compound `CC(C)CN(/N=C/c1ccc2c(c1)COB2O)C1=NS(=O)(=O)c2ccccc21` [Ex 23, N-[(E)-(1-hydroxy-3H-2,1-benzoxaborol-5-yl)methyleneamino]-N-isobutyl-1,1-dioxo-1,2-benzothiazol-3-amine], the Emax was 88% and the IC50 was 3110 nM.

As to `COCCCN(/N=C/c1ccc2c(c1)COB2O)C1=NS(=O)(=O)c2ccccc21` [Ex 25, N-[(E)-(1-hydroxy-3H-2,1-benzoxaborol-5-yl)methyleneamino]-N-(3-methoxypropyl)-1,1-dioxo-1,2-benzothiazol-3-amine], the Emax is 78% and the midpoint of inhibition, the IC50, lay at 2780 nM.

With `CN(/N=C/c1ccc2c(c1)COB2O)C1=NS(=O)(=O)c2ccccc21` [Ex 26, N-[(E)-(1-hydroxy-3H-2,1-benzoxaborol-5-yl)methyleneamino]-N-methyl-1,1-dioxo-1,2-benzothiazol-3-amine], the Emax came to 78% and the IC50 is 3410 nM.

With `CC(C)CN(/N=C/c1ccc2c(c1)COB2O)C1=NS(=O)(=O)c2ccc(F)cc21` [Ex 28, 5-fluoro-N-[(E)-(1-hydroxy-3H-2,1-benzoxaborol-5-yl)methyleneamino]-N-isobutyl-1,1-dioxo-1,2-benzothiazol-3-amine], the Emax was determined as 90% and half-maximal inhibition (IC50) was put at 2750 nM.

For `Cc1ccc2c(c1)C(N(CC(C)C)/N=C/c1ccc3c(c1)COB3O)=NS2(=O)=O` [Ex 29, N-[(E)-(1-hydroxy-3H-2,1-benzoxaborol-5-yl)methyleneamino]-N-isobutyl-5-methyl-1,1-dioxo-1,2-benzothiazol-3-amine], the Emax was 91%.

Regarding `COc1ccc2c(c1)S(=O)(=O)N=C2N(CC(C)C)/N=C/c1ccc2c(c1)COB2O` [Ex 30, N-[(E)-(1-hydroxy-3H-2,1-benzoxaborol-5-yl)methyleneamino]-N-isobutyl-6-methoxy-1,1-dioxo-1,2-benzothiazol-3-amine], the Emax amounted to 86% and the IC50 turned out to be 3840 nM.

Regarding `COc1cccc2c(N(CC(C)C)/N=C/c3ccc4c(c3)COB4O)ncnc12` [Ex 32, N-[(E)-(1-hydroxy-3H-2,1-benzoxaborol-5-yl)methyleneamino]-N-isobutyl-8-methoxy-quinazolin-4-amine], the Emax amounted to 86% and it took 1590 nM to reach half-maximal inhibition (IC50).

For the compound `COc1cccc2c(N(C)/N=C/c3ccc4c(c3)COB4O)ncnc12` [Ex 33, N-[(E)-(1-hydroxy-3H-2,1-benzoxaborol-5-yl)methyleneamino]-8-methoxy-N-methyl-quinazolin-4-amine], the Emax worked out at 86% and the half-maximal inhibitory concentration (IC50) was 4000 nM.

Take `CCN(/N=C/c1ccc2c(c1)COB2O)c1ncnc2c(OC)cccc12` [Ex 34, N-ethyl-N-[(E)-(1-hydroxy-3H-2,1-benzoxaborol-5-yl)methyleneamino]-8-methoxy-quinazolin-4-amine]: the Emax was 81% and the IC50 came out at 1120 nM.

Consider `CC(C)CN(/N=C/c1ccc2c(c1)COB2O)c1ncnc2ccsc12` [Ex 35, N-[(E)-(1-hydroxy-3H-2,1-benzoxaborol-5-yl)methyleneamino]-N-isobutyl-thieno [3,2-d]pyrimidin-4-amine], for which the Emax was determined as 87% and the IC50 is 1360 nM.

Turning to `Cc1ccc2c(c1)C(N(C)/N=C/c1ccc3c(c1)COB3O)=NS2(=O)=O` [Ex 36, N-[(E)-(1-hydroxy-3H-2,1-benzoxaborol-5-yl)methyleneamino]-N,5-dimethyl-1,1-dioxo-1,2-benzothiazol-3-amine], the Emax is 60%.

`COc1ccc2c(c1)C(N(C)/N=C/c1ccc3c(c1)COB3O)=NS2(=O)=O` [Ex 37, N-[(E)-(1-hydroxy-3H-2,1-benzoxaborol-5-yl)methyleneamino]-5-methoxy-N-methyl-1,1-dioxo-1,2-benzothiazol-3-amine]: the Emax was found to be 92% and the IC50 was 4550 nM.

For `CCN(/N=C/c1ccc2c(c1)COB2O)c1ncnc2ccsc12` [Ex 38, N-ethyl-N-[(E)-(1-hydroxy-3H-2,1-benzoxaborol-5-yl)methyleneamino]-thieno[3,2-d]pyrimidin-4-amine], the Emax came out at 81% and the IC50 worked out at 510 nM.

In the case of `CCN(/N=C/c1ccc2c(c1)COB2O)c1ncnc2sccc12` [Ex 40, N-ethyl-N-[(E)-(1-hydroxy-3H-2,1-benzoxaborol-5-yl)methyleneamino]-thieno[2,3-d]pyrimidin-4-amine], the Emax worked out at 85% and the IC50 came to 690 nM.

Regarding `CCN(/N=C/c1ccc2c(c1)COB2O)c1ncnc2c1cnn2C` [Ex 41, N-ethyl-N-[(E)-(1-hydroxy-3H-2,1-benzoxaborol-5-yl)methyleneamino]-1-methyl-pyrazolo[3,4-d]pyrimidin-4-amine], the Emax was found to be 83% and the IC50 stood at 570 nM.

For `CCN(/N=C/c1ccc2c(c1)COB2O)c1ncnc2c1ccn2C` [Ex 44, N-ethyl-N-[(E)-(1-hydroxy-3H-2,1-benzoxaborol-5-yl)methyleneamino]-7-methyl-pyrrolo[2,3-d]pyrimidin-4-amine], the Emax was 78% and inhibition was half-maximal at 920 nM (IC50).

For `CCN(/N=C/c1ccc2c(c1)COB2O)c1nc(C)nc2ccsc12` [Ex 45, N-ethyl-N-[(E)-(1-hydroxy-3H-2,1-benzoxaborol-5-yl)methyleneamino]-2-methyl-thieno[3,2-d]pyrimidin-4-amine], the Emax is 63% and the IC50 stood at 1020 nM.

Take `CC(C)CN(/N=C/c1ccc2c(c1)CCOB2O)C1=NS(=O)(=O)c2ccccc21` [Ex 46, N-[(E)-(1-hydroxy-3,4-dihydro-2,1-benzoxaborinin-6-yl)methyleneamino]-N-isobutyl-1,1-dioxo-1,2-benzothiazol-3-amine]: the Emax came to 72%.

`CC(C)CN(/N=C/c1ccc2c(c1)CCCOB2O)C1=NS(=O)(=O)c2ccccc21` [Ex 47, N-[(E)-(1-hydroxy-4,5-dihydro-3H-2,1-benzoxaborepin-7-yl)methyleneamino]-N-isobutyl-1,1-dioxo-1,2-benzothiazol-3-amine]: the Emax is 73%.

As to `COc1cc(/C=N/N(CC(C)C)C2=NS(=O)(=O)c3ccccc32)cc2c1B(O)OC2` [Ex 48, N-[(E)-(1-hydroxy-7-methoxy-3H-2,1-benzoxaborol-5-yl)methyleneamino]-N-isobutyl-1,1-dioxo-1,2-benzothiazol-3-amine], the Emax amounted to 77%.
